Patent US7759392B2, “Pharmaceutical compounds” (Nicox S.A., priority 1999, dated 2010)
Where two headings read alike, the source gives them in different places.

What was measured:
gastrointestinal mucosa [1] = settings: rat, in vivo, po
gastrointestinal mucosa [2] = settings: male, Wistar, rat, in vivo, 6 h
Procedure: Gastric lesions induced by administration of the compounds of the invention in the confront of the corresponding drug precursor.
The animals have been sacrificed 6 hours after the administration. The gastrointestinal mucosa has been removed and inspected. The incidence of the gastrointestinal damage has been evaluated as described in experiment F1.

[3] = system: human endothelial cells of the umbilical vein; assay: Test 2 (CIP): apoptosis (DNA fragmentation) induced by cumene hydroperoxide in endothelial cells; type: cell-based; settings: drug 10^-4 M; CIP 5 mM
Procedure: Test 2 (CIP): Protection parameter of endothelial cell against the oxidative stress induced by cumene hydroperoxide (CIP).
Human endothelial cells of the umbilical vein are prepared according to an usual standard procedure. Fresh umbilical veins are filled with a 0.1% by weight collagenase solution and incubated at 37° C. for 5 minutes.
The cells are collected from the perfusate by centrifugation and harvested in culture flasks T-75, pretreated with human fibronectin. The cells are then harvested in the same medium, further added with 10 ng/ml of bovine hypothalamic growth factor. When the cells of the primary cell culture (i.e. that directly obtained from ex-vivo) form a single layer of confluent cells (about 8,000,000 cells/flask), the culture is stopped and the layers washed and trypsinized. The cellular suspensions are transferred into the wells of a cell culture plate having 24 wells, half of which is then additioned with the same culture medium containing the drug at a 10^−4M concentration, and harvested in a thermostat at 37° C. at a constant moisture. Only the cells coming from said first sub-cultures are used for the experiments with cumene hydroperoxide (CIP).
Before starting the test, the cellular culture medium is removed and the cellular layers are carefully washed with a physiologic solution at a temperature of 37° C. The wells of the culture plate are then incubated for one hour with CIP at a 5 mM concentration in the culture medium. […] 5 replicates for each sample are carried out.
Human endothelial cells of the umbilical vein are prepared according to a standard method. Fresh umbilical veins are filled with a collagenase solution 0.1% by weight and incubated at 37° C. for 5 minutes.
The cells are collected from the perfusate by centrifugation at 800 rpm and harvested in culture flasks T-75, pretreated with human fibronectin. Cells are then harvested in the same medium, added with bovine hypothalamic growth factor (100 ng/ml). When the cells of the primary cell culture (the cells directly removed from ex-vivo umbilical vein) form a single layer of confluent cells (about 8,000,000 cells/flask), harvesting is stopped and the layers are washed and trypsinized. The cellular suspensions are transferred into wells of a culture plate having 24 wells, half of said wells being added with the same culture medium containing the drug at a 10^−4M concentration, and harvested in a thermostat at 37° C. at a constant moisture (90%), CO2=5%. When the drug is not soluble in the culture medium, it is formerly dissolved in a small amount of dimethylsulphoxide. The maximum amount of dimethylsulphoxide which can be added to the culture medium is 0.5%. Only the cells coming from these first subcultures are used for the tests with cumene hydroperoxide (CIP).
Before starting the test, the cellular culture medium is removed and the cellular layers are carefully washed with a standard physiologic solution buffered with phosphate 0.1 M pH 7.0, at the temperature of 37° C. The content of each well is then incubated for one hour with a CIP suspension in the culture medium at a 5 mM concentration. Evaluation of the cellular damage (apoptosis) is carried out by determining the percent variation of the DNA fragmentation in the cultures containing the drug+CIP with respect to the controls treated with CIP only. […] The fluorescence of each sample was determined on 5 replicates. Statistic evaluation has been made with t Student test (p<0.01).

[4] = system: human endothelial cells of the umbilical vein; assay: Experiment F6: apoptosis (DNA fragmentation) induced in endothelial cells by hydrogen peroxide; type: cell-based; settings: Endothelial cell, products 100 mmoles/l, hydrogen peroxide 200 mmoles/l, 18 hours, read-out: Apoptosis % (respect to the controls treated only with CIP)
Source text: It has been Evaluated the Activity of Some of the Compounds Object of the Present Invention and of the Corresponding Precursor Drugs in Inhibiting DNA Degradation (Apoptosis) in Endothelial Cells Exposed to the Action of Hydrogen Peroxide (HP)
Hydrogen peroxide is a mild oxidant and is considered as an essential mediating agent in pathologies associated with oxidative stress (B. Halliwell, J. Gutteridge “Free Radicals in Biology and Medicine”, page 416, 1993). Therefore the pharmacological activity of compounds to be used under oxidative stress conditions is evaluated through their capability of neutralizing the cytolesive effects of the hydrogen peroxide (B. Halliwell, J. Gutteridge “Free Radicals in Biology and Medicine”, page 416, 1993).
The method described by Herman et Al. (Herman C., Zeiner M. A., Dimmeler S., Arterioscler. Thromb. Vasc. Biol. 17 (12), 3588-82, 1997).
Human endothelial cells of the umbilical vein are prepared according to a standard method. Fresh umbilical veins, just removed, are filled with a solution of collagenase at 0.1% and incubated at 37° C. for 5 minutes.
Subsequently the veins are perfused with medium M 199 (GIBCO, Grand Island, N.Y.) pH 7.4 containing 20% of human serum. The cells are collected from the perfusate by centrifugation at 800 rpm and harvested in culture flasks T-75, pretreated with human fibronectin. […]

gastrointestinal mucosa [5] = settings: rat, in vivo
Procedure: The animals (rats) are distributed in the following groups (no. 10 animals for group):
• 1° group: treatment: only carrier (aqueous suspension 1% w/v of carboxymethylcellulose, dose: 5 ml/Kg when the drug is administered by os, or a physiologic solution when parenterally administered, i.e. by subcutaneous, intraperitoneal, intravenous or intermuscular route), • 2° group: treatment: carrier as above defined+NEM, B) Groups Treated with the Drug: • group I: treatment: carrier+drug, • group II: treatment: carrier+drug+NEM.
The administration routes are those known for the drug, and can be the oral or subcutaneous, intraperitoneal, intravenous or intramuscular route.
The animals are sacrificed after 24 hours and then one proceeds to the evaluation of the damage to the gastrointestinal mucosa.
Test 1—experimental model in vivo with N-ethylmaleimide (NEM): study of the gastric tolerability of some drugs screened as precursors of the compounds of the invention.
The animals (rats, weight about 200 g) are distributed in the following groups (No. 10 animals for group):
• 1° group: treatment: only carrier (aqueous suspension 1% w/v of carboxymethylcellulose, dose: 5 ml/Kg when the drug is administered by os, physiologic solution when by parenteral route), • 2° group: treatment: carrier+NEM, B) Groups Administered with Each Drug: • group I: treatment: carrier+drug, • group II: treatment: carrier+drug+NEM.
The drug is administered one hour later, in suspension in the carrier. Animals are sacrificed after 24 hours and evaluation of the damage to the gastrointestinal mucosa is made by counting the number of rats, inside each group, with lesions to the stomach at a visual inspection. The total number of said rats is then divided by the total number of rats of the group and multiplied by 100.

CN(CCOC(=O)Cc1ccccc1Nc1c(Cl)cccc1Cl)CCO[N+](=O)[O-] [Example 14]
Gastropathy % incidence (gastrointestinal mucosa [1]): 20% | Gastropathy % incidence (gastrointestinal mucosa [2]): 0%

Nc1c2c(nc3ccccc13)CCCC2 [Tacrine, tacrine]
Gastropathy % incidence (gastrointestinal mucosa [2]): 60% | inhibition of apoptosis induced by CIP (in words, p<0.01) [3]: do not significantly inhibit apoptosis | activity at 100000 µM [4]: 8% | Gastro-enteropathy (% incidence) without NEM (gastrointestinal mucosa [5]): 0% | gastrointestinal damages / gastric lesions in rats treated with NEM + drug (in words) (gastrointestinal mucosa [5]): showed gastric lesions
